The assay deals with P388. The assay can be described thus: Cytotoxicity against mouse P388 cells. Format: functional, cell-based.

Take `COc1ccc(C[C@H]2C(=O)N(C)[C@@H](C)C(=O)N(C)[C@H]3Cc4ccc(cc4)Oc4cc(ccc4OC)C[C@@H](C(=O)N(C)[C@H](C)C(=O)N(C)[C@@H](C)C(=O)N2C)N(C)C3=O)cc1`: the IC50 is 3.1 µM.
For `COc1ccc(C[C@H]2C(=O)N[C@@H](C)C(=O)N(C)[C@H]3Cc4ccc(cc4)Oc4cc(ccc4OC)C[C@@H](C(=O)N[C@H](C)C(=O)N[C@@H](C)C(=O)N2C)N(C)C3=O)cc1` the value was 0.0022 µM; for `COc1ccc(C[C@H]2C(=O)N[C@@H](C)C(=O)N(C)[C@H]3Cc4ccc(cc4)Oc4cc(ccc4OC)C[C@@H](C(=O)N[C@H](C)C(=O)N(N)[C@@H](C)C(=O)N2C)N(C)C3=O)cc1`, 0.0057 µM.
As for `COc1ccc(C[C@H]2C(=O)N(C)[C@@H](C)C(=O)N(C)[C@H]3Cc4ccc(cc4)Oc4cc(ccc4OC)C[C@@H](C(=O)N(C)[C@H](C)C(=O)N[C@@H](C)C(=O)N2C)N(C)C3=O)cc1`, the figure is 10 µM; as for `COc1ccc(C[C@H]2C(=O)N(C)[C@@H](C)C(=O)N(C)[C@H]3Cc4ccc(cc4)Oc4cc(c(Br)cc4OC)C[C@@H](C(=O)N(C)[C@H](C)C(=O)N(C)[C@@H](C)C(=O)N2C)N(C)C3=O)cc1`, above 110 µM.
For `COc1ccc(C[C@H]2C(=O)N(C)[C@@H](C)C(=O)N(C)[C@H]3Cc4ccc(cc4)Oc4cc(ccc4OC)C[C@@H](C(=O)N(C)[C@H](C)C(=O)N(N)[C@@H](C)C(=O)N2C)N(C)C3=O)cc1`, the IC50 stood at 49 µM.

Broadly, the IC50 is the point on the concentration scale where inhibition reaches its midpoint. A higher IC50 goes with lower potency.

For the origin of these results see ChEMBL document CHEMBL1764986, “Per-N-methylated analogues of an antitumor bicyclic hexapeptide RA-VII” (Bioorg Med Chem, 2011).
